Holding throughout (test): growth of human tumour cells (NCI), 48 h
The test system of assay [1] is EKVX NSCLC.
Assay [2] relates to SF-268 CNS.
Assay [3] relates to A549 NSCLC.
In assay [4] the test system is COLO 205 colon.
Assay [5] relates to HL-60(TB) leukemia.
Assay [6] relates to HCT-15 colon.
Assay [7] concerns MALME-3M melanoma.
Assay [8] has as its system SK-MEL-5 melanoma.

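48-hour exposure; five concentrations; linearly interpolated endpoints. Definition used: TGI = concentration required for complete inhibition of growth.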

18 compounds from PubChem BioAssay (NCI) can be followed below.

Consider `O=C(O)CCSC(=O)Nc1ccc([N+](=O)[O-])cc1`, for which the TGI in assay [1], in assay [2], in assay [3], in assay [4], in assay [5] and in assay [6] was more than 100 µM each time.
For `COCCCNC(=O)C1C(=O)C(=O)N(CCCOC)C1=O` (stereo not given), the TGI in assay [1], in assay [2], in assay [3], in assay [4], in assay [5] and in assay [6] was more than 100 µM in each case. The TGI in assay [7] and in assay [8] was more than 100 µM throughout.
On to `O=C(CCN(C(=O)O)S(=O)(=O)c1ccc(NC(=O)c2ccccc2)cc1)NC1CCCCC1`, for which the TGI in assay [1] is more than 100 µM; in assay [2] it was more than 100 µM; in assay [3], more than 100 µM; in assay [4], more than 100 µM; in assay [5] it was 94.6 µM; in assay [6], more than 100 µM. The TGI in assay [7] and in assay [8] was more than 100 µM throughout.
As for `COC1(OC)CC2OC1C1N=NN(C(=O)OC(C)(C)C)C21` (stereo not given), the TGI in assay [2] is more than 100 µM; in assay [3], more than 100 µM; in assay [4], more than 100 µM; in assay [5], 81.6 µM; in assay [6], more than 100 µM; in assay [7] it was more than 100 µM. Moreover, the TGI in assay [8] is more than 100 µM.
For the compound `CCOC(=O)/C(=C\c1ccccc1)C(=O)O`, the TGI in assay [1], in assay [2], in assay [3], in assay [4], in assay [5] and in assay [6] was more than 100 µM in each case. In addition, the TGI in assay [7] and in assay [8] was more than 100 µM in each case.
With `O=C(CC1(O)C(=O)Nc2ccccc21)c1ccncc1` (stereo not given), the TGI in assay [1], in assay [2], in assay [3], in assay [4], in assay [5] and in assay [6] was more than 100 µM each time. The TGI in assay [8] is more than 100 µM.
Turning to `Nc1cccc(S(=O)(=O)NCC(=O)O)c1`, the TGI in assay [1], in assay [2], in assay [3], in assay [4], in assay [6] and in assay [7] was more than 100 µM each time. Besides, the TGI in assay [8] is more than 100 µM.
With `C[C@@H]1OC(=O)N2CCCC(=C3SCCCS3)C12` (stereo not given in full), the TGI in assay [1], in assay [2], in assay [3], in assay [4], in assay [6] and in assay [7] was more than 100 µM in each case.
Take `CCN(CC)C(c1ccc(N(C)C)cc1)C(c1ccc(N(C)C)cc1)N(CC)CC` (stereo not given): the TGI was more than 73 µM in assay [1]; more than 73 µM in assay [2]; more than 73 µM in assay [3]; more than 73 µM in assay [4]; 38.3 µM in assay [5]; more than 73 µM in assay [6]. For the same compound, the TGI in assay [7] was 50.3 µM; in assay [8] it was more than 73 µM.
Consider `O=[N+]([O-])c1ccc(C=NC2CCCCC2)cc1`, for which the TGI in assay [1], in assay [2], in assay [3], in assay [4], in assay [5] and in assay [6] was more than 100 µM each time. In addition, the TGI in assay [7] and in assay [8] was more than 100 µM each time.
With `O=C(CC1(O)C(=O)Nc2c(Cl)ccc(Cl)c21)c1ccc(F)cc1` (stereo not given), the TGI in assay [1] was more than 100 µM; in assay [2], more than 100 µM; in assay [3], more than 100 µM; in assay [4], more than 100 µM; in assay [5] it was 58.2 µM; in assay [6], more than 100 µM. Also, the TGI in assay [7] is more than 100 µM; in assay [8] it was 38.6 µM.
Turning to `O=C(CCc1cc(-c2ccccc2)nc(=S)[nH]1)N(Cc1ccccc1)Cc1ccccc1`, the TGI in assay [1], in assay [2], in assay [3], in assay [4], in assay [5] and in assay [6] was more than 100 µM in each case. Moreover, the TGI in assay [7] is more than 100 µM.
In the case of `COc1ccc2c(c1)[n+](=O)c(C(=O)C/C(=N/OCCCc1ccccc1)C(=O)NC13CC4CC(CC(C4)C1)C3)c(C)n2[O-]`, the TGI in assay [1], in assay [2], in assay [3], in assay [4], in assay [5] and in assay [6] was more than 100 µM throughout. The TGI in assay [7] and in assay [8] was more than 100 µM throughout.
Consider `N#C/C(=C\c1ccc2ccccc2c1)c1ccccc1`, for which the TGI in assay [2] was more than 100 µM; in assay [4], 35.9 µM; in assay [6], more than 100 µM; in assay [8], 66.5 µM.
Consider `Cc1cc(N(CCC#N)CCC#N)ccc1/C=C1\N=C(c2cc([N+](=O)[O-])ccc2Cl)N(c2cccc(Cl)c2)C1=O`, for which the TGI in assay [1], in assay [2], in assay [3], in assay [4], in assay [5] and in assay [6] was more than 100 µM each time. For the same compound, the TGI in assay [7] and in assay [8] was more than 100 µM in each case.
As for `O=C(O)C(CS)Nc1c2ccccc2nc2ccccc12` (stereo not given), the TGI in assay [1], in assay [2], in assay [3], in assay [4], in assay [5] and in assay [6] was more than 100 µM throughout. Besides, the TGI in assay [7] was more than 100 µM.
As for `Nc1c(-c2ccc(Cl)cc2)[n+]([O-])c2ccccc2[n+]1[O-]`, the TGI in assay [1], in assay [2], in assay [3], in assay [4], in assay [5] and in assay [6] was more than 100 µM each time. Also, the TGI in assay [7] and in assay [8] was more than 100 µM in each case.
In the case of `COc1ccc2nc3c(C(=O)NCCN(C)C)cccc3nc2c1`, the TGI in assay [1] was 15.7 µM; in assay [2], 48.5 µM; in assay [3], more than 100 µM; in assay [4] it was 22.9 µM; in assay [5], more than 100 µM; in assay [6], 16.6 µM. Also, the TGI in assay [8] came out at 15.7 µM.
